According to patent US12582638B2, “Pharmaceutical composition for treating cancer, containing mTOR-signaling inhibitor as active ingredient” (KOREA ADVANCED INSTITUTE OF SCIENCE AND TECHNOLOGY, priority 2020, dated 2026):

Assays:
[1] = system: immunocytes (CD4+, CD4+/CD44+, CD8+, CD8+/IFNη, Foxp3, NK, and NK/IFNγ); assay: Immunocyte analysis in MC38 homograft model; assay type: in vivo, mouse; settings: lomitapide alone
Method: For mouse homograft tumor model, experiments were conducted using female C57B6/N mice (wild-type, 6 weeks old) with MC38 colorectal cancer and B16F10 melanoma cell lines. MC38 colorectal cancer and B16F10 melanoma cell lines were each subcutaneously injected at a dose of 2×10^5 cells. Lomitapide used in the two models was formulated with 45% saline, 40% PEG300, 5% Tween-80, and 10% DMSO.
From 10 days after the DMC38 colorectal cancer cells injection, lomitapide was intraperitoneally injected five times at a dose of 20 mg/kg, and anti-PD-1 mAb (clone RMP1-14, BioXCell, West Lebanon, NH, USA) or rat IgG2a iso-type control (clone 2A3, BioXCell, BE0089) in PBS was administered at a dose of 10 mg/kg at days 1, 4, 7, and 10 (FIGS. 18a and 18b).
In addition, MC38 colorectal cancer cells were analyzed for immunocytes (CD4+, CD4+/CD44+, CD8+, CD8+/IFNη, Foxp3, NK, and NK/IFNγ).

HCT116 cells [2] = assay: Cell colony forming assay (crystal violet); assay type: cell-based, human; settings: 5 μM, 48 hours, vs wells treated without lomitapide
Method: To examine relationship between lomitapide and cancer cell colony forming rate in HCT116 cells, cancer cell colony forming rates were measured after addition of limitapide to HCT116 cells cultured in wells.
HCT116 cells were seeded at a density of 10^5 cells/well into 12-well plates and incubated 37° C. for 24 hours. Subsequently, the cells were incubated with 0 and 5 μM lomitapide at 37° C. for 48 hours in a 5% CO2 atmosphere. Then, 500 μL of crystal violet was added to each well and incubated at room temperature for 10 minutes to stain the cells. From the staining data, the cells were analyzed for growth rate.

p-AMPK, LC3, p-ULK1 = assay: Autophagy assay, western blot, HCT116; assay type: cell-based, human; settings: 0, 5, and 10 μM, FIG. 8
Method: HCT116 cells treated with various concentration (0, 5, and 10 μM) of lomitapide were analyzed for change in cell autophagy-related cell signaling pathway by western blotting. To this end, the supernatant obtained in Example 3 was loaded onto 10% SDS-PAGE gel. The proteins thus separated were blotted onto a PVDF membrane. Then, the blots were incubated with anti-p-AMPK, anti-LC3, anti-p-ULK1 antibodies (Cell Signaling Technology, Massachusetts, USA) at 4° C. for 12 hours. Afterward, the blots were washed with TBST (a mixture of tris-buffered saline (TBS) and Tween 20), incubated with horseradish peroxidase-conjugated secondary antibody (Cell signaling) at 37° C. for 1 hour, and washed, followed by detecting enhanced chemiluminescence (ECL; Amersham).

p-S6K, p-S6, LC3 [3] = assay: Cell signaling assay, western blot, SW480; assay type: cell-based, human; settings: 0, 5, and 10 μM, FIG. 7a
Method: (§1) Cells treated with various concentrations (0, 5, and 10 μM) of lomitapide were lysed with RIPA buffer containing a protease-inhibitor cocktail. The whole-cell lysate was incubated on ice for 30 minutes. After centrifugation at 4° C. and 13,300×g for 15 minutes, the supernatant was collected. For use as controls, HCT116, SW480, HT29, MDA-MB-231, and MDA-MB-468 cells were treated with 1 μM of torin, known as an mTOR inhibitor.
(§2) For western blot analysis, the supernatant was loaded onto 10% SDS-PAGE gel. The separated proteins were blotted onto a PVDF membrane. Then, the blots were incubated with antibodies at 4° C. for 12 hours as follows (Table 2).
(§3) Then, the blots were washed with TBST (a mixture of tris-buffered saline (TBS) and Tween 20), incubated with horseradish peroxidase-conjugated secondary antibody (Cell signaling) at 37° C. for 1 hour, and washed, followed by detecting enhanced chemiluminescence (ECL; Amersham).

[4] = system: p-AKT, p-mTOR, p-S6K, p-S6; assay: Cell signaling assay, western blot, HCT116; assay type: cell-based, human; settings: 0, 5, and 10 μM, dose-dependent, FIG. 6
Method: as §1, §2, §3

HCT116 cells [5] = assay: HCT116 mouse xenograft model, tumor size; assay type: in vivo; settings: BALB/c nude mice; 50 mg/kg or 25 or 50 mg/kg intraperitoneally, or 10 mg/kg intratumorally; vs DMSO control; FIG. 14
Method: Lomitapide was examined for anticancer effect in tumor-implanted mice by monitoring tumor sizes in the mouse xenograft model after treatment with lomitapide.
Animal experiments were conducted according to the guideline approved by the institutional animal care and use committee in the Korean Advanced Institute of Science and Technology. HCT116 cells (4×10^6) were injected subcutaneously into male BALB/c nude mice at 8-12 weeks of age. After an average tumor volume reached 50 mm^3, the mice were randomly divided into two groups (5 mice/group). The mice were measured for weight and tumor size every two days. Tumor sizes were measured using calipers and determined according to formula 0.5×(width)^2×(Length). P-values were determined using Student's T test. Lomitapide was intraperitoneally injected at a dose of 50 mg/kg into the mice at days 1, 2, 3, 7, 8, 9, 13, 14, 15, and 16 after start of the experiment. For a control, DMSO was injected intraperitoneally into the mice (FIG. 14a).
An additional animal experiment was conducted. Lomitapide was intraperitoneally injected at a dose of 25 or 50 mg/kg into mice five times every two days after start of the experiment. Intraperitoneal injection of DMSO into mice was conducted for a control (FIG. 14b). […]

p-S6K, p-S6, LC3 [6] = assay: Cell signaling assay, western blot, HT29; assay type: cell-based, human; settings: 0, 5, and 10 μM, FIG. 7b
Method: as §1, §2, §3

O=C(NC1CCN(CCCCC2(C(=O)NCC(F)(F)F)c3ccccc3-c3ccccc32)CC1)c1ccccc1-c1ccc(C(F)(F)F)cc1 [lomitapide, N-(2,2,2-trifluoroethyl)-9-[4-[4-[[[4′-(trifluoromethyl)[1,1′-biphenyl]2-yl]carbonyl]amino]-1-piperidinyl]butyl]-9H-fluoren-9-carboxamide]
level of CD4+ immunocytes vs group treated with anti-PD-1 mAb alone [1]: superior
level of CD4+/CD44+ immunocytes vs group treated with anti-PD-1 mAb alone [1]: similar
level of CD8+ immunocytes vs group treated with anti-PD-1 mAb alone [1]: similar
level of CD8+/IFNη immunocytes vs group treated with anti-PD-1 mAb alone [1]: similar
level of Foxp3 immunocytes vs group treated with anti-PD-1 mAb alone [1]: similar
level of NK immunocytes vs group treated with anti-PD-1 mAb alone [1]: superior
level of NK/IFNγ immunocytes vs group treated with anti-PD-1 mAb alone [1]: superior
growth rate (colony forming) (HCT116 cells [2]): remarkably lower in growth rate
conversion from LC3I into LC3II (p-AMPK, LC3, p-ULK1): significantly increased induction of conversion from LC3I into LC3II
phosphorylation level of AMPK (p-AMPK, LC3, p-ULK1; dose-dependent): remarkably increased
conversion from LC3I into LC3II (p-S6K, p-S6, LC3 [3]): increased induction of conversion from LC3I into LC3II
phosphorylation levels of target proteins (p-S6K and p-S6) (p-S6K, p-S6, LC3 [3]): remarkably decreased phosphorylation levels
phosphorylation of target proteins levels (p-AKT, p-mTOR, p-S6K, p-S6) [4]: decreased phosphorylation
tumor growth (tumor size) (HCT116 cells [5]): grow slowly, compared to the control
conversion from LC3I into LC3II (p-S6K, p-S6, LC3 [6]): increased induction of conversion from LC3I into LC3II
phosphorylation levels of target proteins (p-S6K and p-S6) (p-S6K, p-S6, LC3 [6]): remarkably decreased phosphorylation levels
